Results published in publication PMC3627194, “Xentry, a new class of cell-penetrating peptide uniquely equipped for delivery of drugs” (Scientific Reports, 2013).

Assays:
[1] = system: K562 cells transfected to express syndecan-4; experiment: Uptake of Xentry by K562 cells engineered to express syndecan-4; format: cell-based; settings: TAMRA-lclrpvg 20 μM, 3 h, 48 h after transfection with pCMV-hygro-SDC4
Description: Cell nuclei were stained blue with DAPI. […] Scale bar, 50 μm.
The media was removed and replaced with RPMI without serum. Four micrograms of the syndecan-4 plasmid pCMV-hygro-SDC4 and 4 μl of polymag transfection reagent (OZ Biosciences, Marseille, France) were mixed in 100 μl of Opti-MEM media. The mixture was incubated for 20 min at room temperature, added to the cells, and the tissue culture plate placed onto a magnetic plate for 20 min. The media was removed and replaced with RPMI media containing 10% FCS, followed by incubation for 48 h at 37°C and 5% CO2, with a media change after 24 h. TAMRA-labelled Xentry (TAMRA-lclrpvg) was added to the transfectants 48 h following transfection to a final concentration of 20 μM, and the cells were incubated for 3 h. The cells were removed from the plate, washed thrice with PBS, cytospun onto a slide, and fixed with 4% formaldehyde for 15 min. They were washed with PBS and DAPI added for visualization of cell nuclei. […] The cells were then examined using a Nikon E600 fluorescent microscope, and photographed.

[2] = format: in vivo, Balb/c mice
Description: (§1) All experiments in mice were performed in accordance with relevant institutional guidelines and regulations, and were subject to a protocol approved by the Animal Ethics Committee, the University of Auckland. Different amounts (0.1 mg, 1 mg and 5 mg) of a TAMRA-labelled D-isomeric form of Xentry (TAMRA-lclrpvg; Peptide 2.0 Inc., Chantilly, VA) were dissolved in 50 μl of PBS. […] Cardiac blood was collected into an EDTA tube and cytospun onto slides, and viewed by fluorescence microscopy to determine uptake of the peptide by blood cells. The major organs of each mouse was harvested and dissected in half to be either homogenized or placed in a cryotube with isopentane, frozen and sectioned. For homogenization, the organs were weighed and then homogenized in 500 μl of PBS in an Omni bead-ruptor homogenizer (OMNI International, Kennesaw, GA). Equal volumes of homogenate and 8 M guanidinium chloride were mixed, and then centrifuged at 12,000 g for 5 min, and fluorescence of the supernatant measured in a fluorescence plate reader.
Supplementary Figure 5 (cont)
Heart Lung Liver Spleen Pancreas Kidney Stomach Intestine Colon Muscle Brain […]
Supplementary Figure 5. Biodistribution of TAMRA-labelled Xentry intravenously injected into mice. (a) Mice were intravenously injected with 0.1 mg and 5 mg of TAMRA-labelled Xentry and the fluorescence of organ homogenates was measured 15 min, 1, 6, and 24 h later. Results are presented as the mean + SD (n = 3). Refer to Figure 4d for the fluorescence of organ homogenates of mice injected with 1 mg of Xentry. (b) Fluorescence of sections of the major organs of mice intravenously injected with 5 mg of TAMRA-labelled Xentry. The liver sections for the 15 min time-point […]

[3] = system: circulating blood cells; format: in vivo, Balb/c mice; settings: 0.1, 1 and 5 mg i.v.; cytospins of whole blood at 15 min, 1 h, 6 h and 24 h
Description: as §1
Supplementary Figure 6. […] A sample of […]
cardiac blood was collected from mice injected with 0.1, 1 and 5 mg of TAMRA-labelled Xentry at 4 different time points, and cytospun onto a slide. The blood sample was examined by brightfield and fluorescence microscopy. […]

## TAMRA-lclrpvg [TAMRA-labelled Xentry, TAMRA-labelled D-isomeric form of Xentry]
[1]
  Uptake by syndecan-4-expressing K562 transfectants: increased uptake
[2]; 0.1, 1 and 5 mg i.v., organ homogenates
  Uptake by heart, pancreas, brain relative to other tissues: less well
[2]; 0.1, 1 and 5 mg i.v., lungs, liver, spleen, kidneys, stomach, small intestine, colon, muscle, homogenate fluorescence, n = 3
  Time to uptake by major tissues (organ homogenates): ≤ 15 min
[2]; i.v., 24 h, organ homogenates
  Level in most organs, except liver and kidneys, by 24 h: only low levels
[2]; i.v., fluorescence of organ sections
  Distribution within tissue sections: concentrated within particular regions of certain tissues, such as the epithelia lining the colon, stomach and bronchial airways
[3]
  Uptake by circulating blood cells: not taken up and sequestered
